# Source: patent publication US6362165B1, “Hydroxyphenyl derivatives with HIV integrase inhibitory properties” (Pharmacor Inc., priority 1999, dated 2002)
# Legend:
# [1] = molecular target: T1, HIV-1 integrase (Human immunodeficiency virus type 1 group M subtype B, UniProt P04585); assay: HIV-1 integrase inhibition assay (based on procedure of Hazuda et al.); assay type: biochemical; settings: Table 3, general formula I
# From the text: For the purposes of Table 3 the HIV-1 integrase inhibition assay was based on a known procedure (Hazuda, D. J. et al., Nucleic Acids Res. 22, 1121-1122 (1994)).
# [2] = molecular target: T1, HIV-1 integrase; assay: HIV-1 integrase inhibition assay (procedure of Burke et al.; radiolabeled duplex substrate, U5 end of HIV LTR); assay type: biochemical
# Procedure: For the purposes of Table 1 (and Table 2) the HIV-1 integrase inhibition assay was carried out following a known procedure (Burke, Jr. T. R. et al., J. Med. Chem. 38, 4171-4178 (1995)). A suitable radiolabeled duplex substrate corresponding to the U5 end of the HIV LTR was used.
# [3] = Nα-caffeoyl derivative of the root amino acid, read-out: Anti-integrase activity (IC50) Nα-Caffeoyl derivative
# [4] = other Nα-3,4-dihydroxyphenyl derivative of the root amino acid, read-out: Anti-integrase activity (IC50) Other Nα-3,4-dihydroxyphenyl derivative
# [5] = Table 2, dipeptide derivatives of I, read-out: Anti-integrase activity (IC50)
# [6] = Table 1, 3,4-dihydroxy derivative of the root amino acid, formula Ic, read-out: Anti-integrase activity (IC50) 3,4-dihydroxy derivative
# [7] = Table 1, 4-hydroxy derivative of the root amino acid, formula Ic, read-out: Anti-integrase activity (IC50) 4-hydroxy derivative
compound,measurement,setting,value
"O=C(C=Cc1ccc(O)c(O)c1)NC(CCC(=O)NCCc1ccc(O)c(O)c1)C(=O)NCCc1ccc(O)c(O)c1 [Example 60, N-[N′-caffeoyl-Nα-(3-hydroxytyramine)-L-glutamyl]dopamine]",IC50,[1]; [3],0.105 µM
"O=C(N[C@@H](Cc1ccc(O)cc1)C(=O)NCc1ccc(O)c(O)c1)c1ccc(O)c(O)c1 [Example 56, N-[N′-(3′,4′-dihydroxybenzoyl)-L-tyrosyl]-3,4-dihydroxybenzylamine]",IC50,[1]; [4],0.78 µM
"O=C(N[C@@H](Cc1ccc(O)cc1)C(=O)N[C@@H](Cc1ccc(O)cc1)C(=O)O)c1ccc(O)c(O)c1 [Example 36, N-[N′-(3′,4′-dihydroxybenzoyl)-L-tyrosyl]-L-tyrosine]",IC50,[2]; [5],177 µM
"O=C(CC[C@H](NC(=O)c1ccc(O)c(O)c1)C(=O)O)NCCc1ccc(O)c(O)c1 [Example 63, Nα-(3,4-dihydroxybenzoyl)-Nδ-(3-hydroxytyramine) L-glutamic acid]",IC50,[1]; [4],2.8 µM
"O=C(N[C@@H](Cc1ccc(O)cc1)C(=O)NCCc1ccc(O)c(O)c1)c1ccc(O)c(O)c1 [Example 12, N-[N′-(3′,4′-dihydroxybenzoyl)-L-tyrosyl]-dopamine]",IC50,[2]; [6],8 µM
"O=C(C[C@H](NC(=O)[C@H](Cc1ccc(O)cc1)NC(=O)c1ccc(O)c(O)c1)C(=O)NCCc1ccc(O)c(O)c1)OCc1ccccc1 [Example 41, N-[N′-[N″-(3″,4″-dihydroxybenzoyl)-L-tyrosyl]-L-γ-O-benzyl-aspartyl]-dopamine]",IC50,[2]; [5],20 µM
"O=C(N[C@@H](Cc1ccc(O)cc1)C(=O)NCCc1ccc(O)c(O)c1)c1ccc(O)cc1 [Example 11, N-[N′-(p-hydroxybenzoyl)-L-tyrosyl]-dopamine]",IC50,[2]; [7],88 µM
"CC(C)C[C@H](NC(=O)c1ccc(O)cc1)C(=O)NCCc1ccc(O)c(O)c1 [Example 25, N-[N′-(p-hydroxybenzoyl)-L-leucyl]-dopamine]",IC50,[2]; [7],> 200 µM
"O=C(/C=C/c1ccc(O)c(O)c1)N[C@@H](CO)C(=O)NCCc1ccc(O)c(O)c1 [Example 59, N-(N′-caffeoyl-L-seryl)dopamine]",IC50,[1]; [3],0.14 µM
"O=C(/C=C/c1ccc(O)c(O)c1)N[C@@H](Cc1ccc(O)c(O)c1)C(=O)NCc1ccc(O)c(O)c1 [Example 55, N-(N′-caffeoyl-L-3,4-dihydroxyphenylalanyl)-3,4-dihydroxybenzylamine]",IC50,[1]; [3],0.38 µM
"C[C@H](NC(=O)c1ccc(O)cc1)C(=O)NCCc1ccc(O)c(O)c1 [Example 19, N-[N′-(p-hydroxybenzoyl)-L-alanyl]-dopamine]",IC50,[2]; [7],160 µM
"C[C@H](NC(=O)c1ccc(O)c(O)c1)C(=O)NCCc1ccc(O)c(O)c1 [Example 20, N-[N′-(3′, 4′-dihydroxybenzoyl)-L-alanyl]-dopamine]",IC50,[2]; [6],71 µM
"O=C(CNC(=O)c1ccc(O)c(O)c1)N[C@@H](Cc1ccc(O)cc1)C(=O)O [Example 39, N-[N′-(3′,4′-dihydroxybenzoyl)-glycyl]-L-tyrosine]",IC50,[2]; [5],> 200 µM
"O=C(C=Cc1ccc(O)c(O)c1)NC(CC(=O)NCCc1ccc(O)c(O)c1)C(=O)OCc1ccccc1 [Example 52, Nα-caffeoyl-Nγ-(3-hydroxytyramine)-L-aspartic acid benzyl ester]",IC50,[1]; [3],2.2 µM
"CC(C)C[C@H](NC(=O)c1ccc(O)c(O)c1)C(=O)NCCc1ccc(O)c(O)c1 [Example 26, N-[N′-(3′,4′-dihydroxybenzoyl)-L-leucyl]-dopamine]",IC50,[2]; [6],45 µM
"O=C(CC[C@H](NC(=O)c1ccc(O)cc1)C(=O)NCCc1ccc(O)c(O)c1)NCCc1ccc(O)c(O)c1 [Example 21, N-[′-(p-hydroxybenzoyl)-6-(3-hydroxytyramine)-L-glutamyl]-dopamine]",IC50,[2]; [7],64 µM
"O=C(N[C@@H](CS)C(=O)NCCc1ccc(O)c(O)c1)c1ccc(O)c(O)c1 [Example 58, N-[N′-(3′,4′-dihydroxybenzoyl)-L-cysteinyl]dopamine]",IC50,[1]; [4],0.21 µM
"O=C(N[C@@H](Cc1c[nH]c2ccccc12)C(=O)NCCc1ccc(O)c(O)c1)c1ccc(O)c(O)c1 [Example 30, N-[N′-(3′,4′-dihydroxybenzoyl)-L-tryptophyl]-dopamine]",IC50,[2]; [6],17 µM
O=C(N[C@@H](Cc1c[nH]cn1)C(=O)NCCc1ccc(O)c(O)c1)c1ccc(O)c(O)c1 [Example 33],IC50,[2]; [6],0.1 µM
"O=C(NCCc1ccc(O)c(O)c1)[C@@H]1CCCN1C(=O)c1ccc(O)cc1 [Example 27, N-[N′-(p-hydroxybenzoyl)-L-prolyl]-dopamine]",IC50,[2]; [7],> 200 µM
"O=C(CC[C@H](NC(=O)c1ccc(O)c(O)c1)C(=O)NCCc1ccc(O)c(O)c1)NCCc1ccc(O)c(O)c1 [Example 22, N-[′-(3′,4′-dihydroxybenzoyl)-δ-(3-hydroxytyramine)-L-glutamyl]-dopamine]",IC50,[2]; [6],11 µM
"O=C(CC[C@H](NC(=O)c1ccc(O)c(O)c1)C(=O)NCCc1ccc(O)c(O)c1)OCc1ccccc1 [Example 23, N-[′-(3′,4′-dihydroxybenzoyl)-δ-benzyloxy-L-glutamyl]-dopamine]",IC50,[2]; [6],26 µM
"O=C(Cc1ccc(O)c(O)c1)N[C@@H](Cc1ccc(O)c(O)c1)C(=O)NCCc1ccc(O)c(O)c1 [Example 57, N-[N′-(3′,4′-dihydroxyphenylacetyl)-L-3,4-dihydroxyphenylalanyl]dopamine]",IC50,[1]; [4],0.106 µM
"O=C(NC(Cc1ccc(O)c(F)c1)C(=O)NCCc1ccc(O)c(O)c1)c1ccc(O)c(O)c1 (racemic) [Example 48, N-[N′-(3′,4′-dihydroxybenzoyl)-DL-3-fluorotyrosinyl]-dopamine]",IC50,[2]; [6],1.4 µM
"O=C(/C=C/c1ccc(O)c(O)c1)N[C@@H](CC(=O)OCc1ccccc1)C(=O)NCCc1ccc(O)c(O)c1 [Example 61, N-(N′-caffeoyl-Oγ-benzyl-L-aspartyl)dopamine]",IC50,[1]; [3],3.5 µM
"O=C(N[C@@H](Cc1ccc(O)c(O)c1)C(=O)NCCc1ccc(O)c(O)c1)c1ccc(O)c(O)c1 [Example 16, N-[N′-(3′,4′-dihydroxybenzoyl)-L-3,4-dihydroxy-phenylalanyl]-dopamine]",IC50,[2]; [6],8 µM
N-(N′-caffeoyl-L-tryptophanyl)dopamine [Example 53],IC50,[1]; [3],1.5 µM
"O=C(CC[C@H](NC(=O)c1ccc(O)c(O)c1)C(=O)OCc1ccccc1)NCCc1ccc(O)c(O)c1 [Example 49, N-(3,4-dihydroxybenzoyl)-δ-N′-(3′,4′-dihydroxyphenethyl)-L-glutamine α-benzyl ester]",IC50,[2]; [6],2.2 µM
"O=C(N[C@@H](Cc1ccccc1)C(=O)NCCc1ccc(O)c(O)c1)c1ccc(O)cc1 [Example 13, N-[N′-(p-hydroxybenzoyl)-L-phenylalanyl]-dopamine]",IC50,[2]; [7],> 200 µM
"O=C(O)C[C@H](NC(=O)/C=C/c1ccc(O)c(O)c1)C(=O)NCCc1ccc(O)c(O)c1 [Example 62, N-(N′-caffeoyl-L-aspartyl)dopamine]",IC50,[1]; [3],3.5 µM
"O=C(NC(Cc1cccc(O)c1)C(=O)NCCc1ccc(O)c(O)c1)c1ccc(O)c(O)c1 (racemic) [Example 50, N-[N′-(3′,4′-dihydroxybenzoyl)-DL-m-tyrosyl]-dopamine]",IC50,[2]; [6],1.3 µM
"O=C(/C=C/c1ccc(O)c(O)c1)N[C@@H](Cc1ccc(O)c(O)c1)C(=O)NCCc1ccc(O)c(O)c1 [Example 54, N-(N′-caffeoyl-L-3,4-dihydroxyphenylalanyl)dopamine]",IC50,[1]; [3],0.62 µM
N-[N′-(p-hydroxybenzoyl)-L-tryptophanyl]-dopamine [Example 29],IC50,[2]; [7],245 µM
"O=C(O)CNC(=O)[C@H](Cc1ccc(O)cc1)NC(=O)c1ccc(O)c(O)c1 [Example 37, N-[N′-(3′,4′-dihydroxybenzoyl)-L-tyrosyl]-glycine]",IC50,[2]; [5],> 200 µM
"O=C(N[C@H](Cc1ccc(O)cc1)C(=O)NCCc1ccc(O)c(O)c1)c1ccc(O)c(O)c1 [Example 10, N-[N′-(3′,4′-dihydroxybenzoyl)-D-tyrosyl]-dopamine]",IC50,[2]; [6],67 µM
"O=C(/C=C/c1ccc(O)c(O)c1)N[C@@H](Cc1ccc(O)cc1)C(=O)NCc1ccc(O)c(O)c1 [Example 64, N-(N′-caffeoyl-L-tyrosyl)-3,4-dihydroxybenzylamine]",IC50,[1]; [3],3 µM
"O=C(NCCc1ccc(O)c(O)c1)[C@@H]1CCCN1C(=O)c1ccc(O)c(O)c1 [Example 28, N-[N′-(3′,4′-dihydroxybenzoyl)-L-prolyl]-dopamine]",IC50,[2]; [6],80 µM
"O=C(N[C@@H](Cc1ccccc1)C(=O)NCCc1ccc(O)c(O)c1)c1ccc(O)c(O)c1 [Example 14, N-[N′-(3′,4′-dihydroxybenzoyl)-L-phenylalanyl]-dopamine]",IC50,[2]; [6],45 µM
O=C(N[C@@H](Cc1ccc(O)cc1)C(=O)N[C@@H](Cc1ccc(O)cc1)C(=O)NCCc1ccc(O)c(O)c1)c1ccc(O)c(O)c1 [Example 51],IC50,[2]; [5],17 µM
